In US11969402B2, “Compositions and methods for skin rejuvenation” (THE JOHNS HOPKINS UNIVERSITY, priority 2019, dated 2024):

Assays:
[1] = tested on: keratinocytes of Tlr3−/− mice; experiment: Western blot of stem cell markers in keratinocytes of Tlr3-/- mice; format: cell-based, mouse; conditions: keratinocytes or whole skin from Tlr3−/− mice
Procedure: Adult keratinocytes isolation and cultures. For human keratinocytes, 3-mm skin biopsies were taken from areas of the occipital scalp through above IRB protocols using enzyme digestion method as described in the literature^30,31. For mouse keratinocytes, tails of adult mice were used and followed by the same protocol of human keratinocytes. Briefly, the skin fragments were incubated in 0.4% dispase II solution overnight at 4° C., allowing separation of epidermis from dermis. Then epidermis was incubated with 0.25% trypsin-EDTA (Lonza, Walkersville, MD) to isolate keratinocytes for 5 min at 37° C. Adult keratinocytes were maintained in KGM including defined growth factors (KGM-GOLD Bullet kit, #192060) (Lonza) and supplemented with 10 μM of ROCK inhibitor (Y-27632) (Cayman Chemical, #10005583) until use^32. For all in vitro experiments, primary keratinocytes were passaged at least once to eliminate contaminating other cells isolated from epidermis and used at passage 2-4 for human and passage 1-2 for mouse keratinocytes.
BMS493 treatment. BMS493 pan-RARs antagonist (1 μM) was pre-treated into keratinocytes for an hour and cells were incubated with RA (0.1 μM and 0.5 μM for human and mouse keratinocytes, respectively) or Poly (I:C) (0.1 μg per ml for both human and mouse keratinocytes) for 48 hrs. At the end of the experiment, cells were harvested for RNA and protein extraction to do further analysis including qRT-PCR and western blot.
Western blot analysis. Human and mouse keratinocytes were disrupted in M-PER lysis buffer (Thermo Fisher Scientific, #78501) containing protease inhibitors (Thermo Fisher Scientific, #87786) using ultrasonic homogenizer (20% power with 5 times every 2 seconds) to extract proteins. Then, protein concentrations were determined by BCA method (Thermo Fisher Scientific, #23225). Western blot procedures were followed by the protocol of NuPAGE system (Thermo Fisher Scientific). […] The signal intensity of protein was quantified using Image Lab software (Bio-Rad). […]

[2] = tested on: Aldh1a2, Aldh1a3; experiment: qRT-PCR of Aldh1a2 and Aldh1a3 in mouse wounds; format: in vivo
Procedure: Wound Induced Hair Neogenesis (WIHN). All experiments were followed with the present inventors' WIHN protocol^1,9. Briefly, hair was shaved and a 1.2 cm^2 full-thickness skin on the backs of 21-day old (telogen) male and female mice was removed by sterile scissors. A single treatment of RA (30 μl) (0.1 μg per mouse) (Millipore Sigma, R2625) and BMS493 (30 μl) (0.1 μg per mouse) (Cayman Chemical, #17418) was applied topically onto open wound on WD1 of Tlr3^−/− and WT mice, respectively. Poly (I:C) (50 μl) (5 μg per mouse) (Invivogen, tlrl-pic) was injected under the healed scab on WD3 of WT mice as described before^9,34. On WD20-24, numbers of regenerated hair follicles were visualized and quantified in the re-epithelialized skin by non-invasive confocal scanning laser microscopy (CSLM) (Caliber I.D., VIVASCOPE 1500) as published^1,9. As a vehicle (Control), ethanol (EtOH), dimethylsulfoxide (DMSO), or PBS was treated for RA, BMS493, and Poly (I:C), respectively.
RNA isolation and quantitative real-time PCR (qRT-PCR). For cells, total RNA was isolated from cultured keratinocytes using RNeasy Mini Kit (Qiagen, Valencia, CA, #74106) and treated with DNase I (Qiagen, #79254) to eliminate genomic DNA. For tissue, total RNA was isolated by following the manual of Direct-zol™ RNA MiniPrep Plus kit (Zymo Research, R2073). The purity and concentration of RNAs were analyzed using a NanoDrop2000c (Thermo Fisher Scientific, ND-2000c). Following reverse transcriptase reactions using high-capacity RNA to cDNA kit (Life Technologies), qRT-PCR was performed to measure target genes using TaqMan probes and Fast reaction master mix reagents (Life Technologies). Relative expression of mRNAs was analyzed by the cycle of threshold (Ct) value of target genes and quantified by normalizing to ribosomal protein large P0 (RPLP0) for human keratinocytes and to β-Actin for mouse keratinocytes or tissues as housekeeping genes using the ΔΔCt method^48.

[3] = tested on: cells; experiment: Entry of dsRNA (PIC) into cells, stain (Example 2); format: cell-based; conditions: after pre-treatment with RA

Row | Compound | levels of Krt19, Krt15 and activated β-catenin protein [1] | Aldh1a3 and Aldh1a2 induction in early wounds ([2]; Tlr3−/− mice) | Aldh1a2 transcription during wound healing ([2]; WT mice) | Aldh1a3 transcription during wound healing ([2]; WT mice) | accumulation of PIC in cells [3]
1 | CC1=C(/C=C/C(C)=C/C=C/C(C)=C/C(=O)O)C(C)(C)CCC1 [RA, all-trans-retinoic acid] | increased |  |  |  | 
2 | Polyinosinic-polycytidylic acid [Poly (I:C)] |  | neither is induced | did not show a similar pattern | induced | much more effectively
